Results taken from patent US7098372B1, “Pharmaceutical compositions and methods of using secreted frizzled related protein” (Wyeth, priority 1999, dated 2006).

Tests used:
Format in all cases: cell-based, human
[1] = system: hOB-03-C5, hOB-03-CE6 and hOB-01-C1 cells; assay: hOB cell viability in serum-free medium, Coulter cell counter; details: 39° C.
Method: For these experiments, the cells were treated with either control or PGE2 (panels A & B) or control and TGF-β1 (panel C) in serum-free medium at 39° C. for 3 or 6 days. The results are presented as the % relative to the day 0 control (i.e., […] cells per well of a 6 well plate). The results of this experiment indicate that hOB cell viability declines over time in serum-free medium. In addition, for the hOB-03-C5 and hOB-03-CE6 cells, this rate of decline is accelerated by treatment with PGE2. This enhanced rate of cell death correlates with the upregulation of hOB SFRP mRNA levels in these cells following PGE2 treatment. […]
The next day, one set of plates were rinsed with PBS, trypsinized, and baseline cell number (and mean cell volume) was determined with a Coulter Multisizer as previously described in Bodine et al. 1996 J. Bone Miner. […] The other set of plates was placed at the non-permissive temperature of 39° C., and cell number was determined 6 days later (the medium was changed on day 3). […]
The hypothesis that up-regulation of SFRP-1/FRP-1/SARP-2 gene expression accelerates hOB cell death, while down-regulation of SFRP-1/FRP-1/SARP-2 gene expression suppresses cell death, was next examined. […] Finally, treatment of the hOB-03-C5 cells with PGE2 increased annexin V (a specific marker for apoptosis) binding to the cell as measured by flow cytometry (FIG. 11).

hOB SFRP gene fragment = assay: RADE (differential-display PCR) of hOB cell lines treated with osteogenic agents; details: 24 hr
From the text: It can also be seen that the hOB-01-C1 cells express high basal levels of this gene.
The hOB SFRP gene fragment was identified using RADE (rapid analysis of differential expression) technology as described by Shiue 1997 Drug Develop. Res. 41: 142–159, the whole of which is incorporated herein. Three hOB cell lines (hOB-03-C5, hOB-03-CE6 and hOB-01-C1), representing three distinct stages of differentiation (proliferative, mature and preosteocytic, respectively) were used to isolate and identify SFRP. The hOB cell lines were established and cultured as previously described (Bodine et al. 1996 J. Bone Miner. Res. 11: 806–819; Bodine et al. 1996 Endocrinology 137: 4592–4604; Bodine et al. 1997 J. Cell. Biochem. 65: 368–387). […] However, in contrast to osteosarcoma cells (Stein and Lian 1993 Endocrine Rev. 14: 424–442), the hOB cell lines were faithful to the proliferation/differentiation relationship at the nonpermissive temperature (>37° C.) when the T-antigen mutant is inactivated. The cell lines were seeded into 150 mm dishes at ˜40,000 cells/cm^2 with growth medium [D-MEM/F-12 containing 10% (v/v) heat-inactivated fetal bovine serum (FBS), 1% (v/v) Penicillin-Streptomycin and 2 mM GlutaMAX-1] and incubated overnight at 34° C. […]

hOB-03-C5 cells = assay: Generation of histone-associated DNA fragments
Method: The hypothesis that up-regulation of SFRP-1/FRP-1/SARP-2 gene expression accelerates hOB cell death, while down-regulation of SFRP-1/FRP-1/SARP-2 gene expression suppresses cell death, was next examined. […] The next day, the 6-well plates were rinsed with PBS, placed in BSA-medium, and treated at 39° C. in the absence or presence of either 100 nM PGE2 (in order to up-regulate SFRP-1/FRP-1/SARP-2 steady-state mRNA levels; panels A & B), or 0.01–1.0 nM TGF-β1 (in order to down-regulate SFRP-1/FRP-1/SARP-2 message levels; panel C). Incubating cells in serum-free medium is a common method to induce apoptosis (Melkonyan et al. 1997 Proc. Natl. Acad. Sci. USA 94: 13636–13641), and the hOB-03-C5, hOB-03-CE6 and hOB-01-C1 cell lines all stopped dividing and gradually died under these conditions. […] In contrast, treatment of the hOB-01-C1 cells with TGF-β1 increased cell viability about 2-fold in a dose-dependent manner. […] This observation was consistent with the induction of apoptosis, which is known to result in cytoplasmic blebbing, the loss of water and a decrease in cell volume (Mesner and Kaufmann 1997 in Advances in Pharmacology, vol. 41, pp. 57–88). […] Finally, treatment of the hOB-03-C5 cells with PGE2 increased annexin V (a specific marker for apoptosis) binding to the cell as measured by flow cytometry (FIG. 11).

## human transforming growth factor-β1 [TGF-β1]
[1]; hOB-01-C1 cells, 0.01–1.0 nM, dose-dependent
  increase in cell viability: about 2 fold
hOB SFRP gene fragment; pre-osteocytic hOB-01-C1 cell line, 0.1 nM
  regulation of hOB SFRP gene fragment: down-regulated

## CCCCC[C@H](O)/C=C/[C@H]1[C@H](O)CC(=O)[C@@H]1C/C=C\CCCC(=O)O [PGE2, prostaglandin E2]
hOB-03-C5 cells
  histone-associated DNA fragments: resulted in the generation of histone-associated DNA fragments
[1]; hOB-03-C5 and hOB-03-CE6 cells, 100 nM, 6 days
  fewer cells remaining alive versus control: over 40%
hOB SFRP gene fragment; hOB-03-C5 and hOB-03-CE6 cell lines, 100 nM
  regulation of hOB SFRP gene fragment: strongly up-regulated
